From ChEMBL document CHEMBL5038669, “Development of the First Covalent Monopolar Spindle Kinase 1 (MPS1/TTK) Inhibitor” (J Med Chem, 2022)

Key:
[1] = target: Cyclin-G-associated kinase (Homo sapiens) (UniProt O14976); test: Binding affinity to human GAK assessed as thermal stability by measuring melting temperature 10 uM by differential scanning fluorimetry
[2] = target: T1, Serine/threonine-protein kinase 17B (Homo sapiens) (UniProt O94768); settings: dose 10.0 µM
T1 sequence (whole entry): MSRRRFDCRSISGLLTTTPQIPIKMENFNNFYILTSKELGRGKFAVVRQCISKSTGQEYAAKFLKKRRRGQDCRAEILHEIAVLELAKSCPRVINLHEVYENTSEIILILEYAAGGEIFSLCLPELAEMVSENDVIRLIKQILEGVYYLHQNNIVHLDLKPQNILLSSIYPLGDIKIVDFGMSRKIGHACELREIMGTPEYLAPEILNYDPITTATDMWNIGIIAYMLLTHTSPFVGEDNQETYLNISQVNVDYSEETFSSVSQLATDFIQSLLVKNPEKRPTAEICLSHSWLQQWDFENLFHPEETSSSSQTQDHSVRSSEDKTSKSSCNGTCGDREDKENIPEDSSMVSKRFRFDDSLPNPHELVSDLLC

Cyclin-G-associated kinase (Homo sapiens), sequence (O14976 whole entry): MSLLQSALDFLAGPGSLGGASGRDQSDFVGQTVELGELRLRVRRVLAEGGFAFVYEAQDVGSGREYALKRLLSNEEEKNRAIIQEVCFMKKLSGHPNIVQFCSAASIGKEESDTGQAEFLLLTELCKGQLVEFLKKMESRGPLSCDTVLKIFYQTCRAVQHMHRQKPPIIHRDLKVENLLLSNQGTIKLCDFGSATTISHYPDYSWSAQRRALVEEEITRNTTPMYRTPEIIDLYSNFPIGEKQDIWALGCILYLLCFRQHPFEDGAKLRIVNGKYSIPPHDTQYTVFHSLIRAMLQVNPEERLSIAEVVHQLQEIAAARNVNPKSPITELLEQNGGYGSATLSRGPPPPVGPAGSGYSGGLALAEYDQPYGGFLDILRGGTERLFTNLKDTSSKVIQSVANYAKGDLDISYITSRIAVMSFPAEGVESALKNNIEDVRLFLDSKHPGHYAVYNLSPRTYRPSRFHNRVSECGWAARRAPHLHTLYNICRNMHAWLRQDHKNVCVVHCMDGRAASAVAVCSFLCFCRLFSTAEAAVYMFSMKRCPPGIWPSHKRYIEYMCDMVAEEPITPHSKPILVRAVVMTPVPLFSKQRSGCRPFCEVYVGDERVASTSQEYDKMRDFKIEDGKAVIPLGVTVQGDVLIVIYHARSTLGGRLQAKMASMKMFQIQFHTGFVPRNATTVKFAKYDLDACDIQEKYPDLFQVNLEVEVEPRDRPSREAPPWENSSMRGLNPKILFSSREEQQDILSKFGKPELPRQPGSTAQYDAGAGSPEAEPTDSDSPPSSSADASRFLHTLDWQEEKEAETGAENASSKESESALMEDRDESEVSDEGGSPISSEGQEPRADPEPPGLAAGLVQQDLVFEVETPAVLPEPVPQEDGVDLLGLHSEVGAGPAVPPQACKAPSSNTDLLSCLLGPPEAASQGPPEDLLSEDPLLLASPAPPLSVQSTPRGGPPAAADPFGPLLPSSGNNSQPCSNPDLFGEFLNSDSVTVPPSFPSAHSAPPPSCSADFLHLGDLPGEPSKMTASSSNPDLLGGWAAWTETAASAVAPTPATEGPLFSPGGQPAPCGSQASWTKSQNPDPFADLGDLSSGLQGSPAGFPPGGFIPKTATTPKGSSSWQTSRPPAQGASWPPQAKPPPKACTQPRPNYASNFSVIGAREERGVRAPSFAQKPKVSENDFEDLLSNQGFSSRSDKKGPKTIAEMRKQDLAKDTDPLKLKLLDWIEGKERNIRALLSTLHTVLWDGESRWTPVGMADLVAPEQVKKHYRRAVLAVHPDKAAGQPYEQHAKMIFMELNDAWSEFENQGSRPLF

CCc1cccc(CC)c1NC(=O)c1ccn2c1CCc1cnc(Nc3ccc(N4CCN(C)CC4)cc3OC)nc1-2
ΔTm [1]: 13.2 °C
ΔTm [2]: 21.6 °C
